According to patent US20020037885A1, “Therapeutic compounds” (priority 1999, published 2002):
Read-outs that look alike come from different tables or passages of the source.

Columns and labels:
[1] = test system: marble burying behaviour in mice; assay: Mouse Marble Burying Assay (BUR); assay type: in vivo; settings: Mus musculus, sc
Method: This assay was carried out essentially according to the procedure described by Treit et al. (1981) Pharmacol Biochem Behav; 15; 619-626.
The results are presented as BUR ED50 (sc). This is the effective dose causing 50% inhibition of burying compared to control mice.

[2] = test system: hyperpolarisation-activated inward cation current Ih in dorsal root ganglion (DRG) cells; assay: Inhibition of hyperpolarisation-activated cation current (Ih), whole cell voltage clamp on cultured DRG cells; assay type: cell-based; settings: (-) log concentration at which Ih activation rate constant kact is reduced by 50%; mean; rat DRG cells
Method: A) determining the potency of compounds to inhibit the hyperpolarisation-activated inward cation current Ih in dorsal root ganglion (DRG) cells of the rat; the effect is measured as the decrease in Ih activation rate and is expressed as the half maximal effect concentration (IC50) or the negative logarithm of this IC50 (known as pIC50).
To obtain E15 DRGs, pregnant Wistar rats were sacrificed. Embryos were removed and spinal cords with DRG attached to both sides were dissected out and collected in Hanks balanced salt solution (HBSS; Gibco). DRG were separated from the spinal cord and pooled in HBSS without Ca^2+ and Mg^2+. Dissociation of intact DRG was started by incubation with a 0.25% trypsin solution for 30 min at 37° C. Trypsination was stopped by diluting the enzyme and centrifugation (1 min; 2500 rpm). After aspiration of the supernatant the tissue pellet was triturated with DMEMF10 (DMEM supplemented with 10% fetal bovine serum (Hyclone), 6 g/l glucose and 2 mM I-glutamine) and centrifuged for 10 min at 1700 rpm. Dissociated DRG cells were resuspended in culture medium (DMEMF10 with 50 ng/ml NGF 2.5S (Alomone labs)), counted and plated out in a density of 1-2.105 cells on collagen (50 μg/ml) and/or poly-l-lysine (10-20 μg/ml) coated glass coverslips in 24-well tissue culture plates. Plates were kept in a humidified incubator at 37° C. and 5% CO2 for 72 hrs. Glial cell proliferation was inhibited when necessary by adding cytosine arabinoside (Ara-c) at a concentration of 5.10^−7 M. After 3 days fresh culture medium was administered. Medium was subsequently changed every […].
DRG cells were sampled with the whole cell voltage clamp method. Glass electrodes were pulled from thick-walled borosilicate capillaries with filament (1 mm outer diameter). Pipette resistance was 2-5 MΩ. Series resistance (5-15 MΩ) was compensated for to ensure so that potential errors made in the determination of the actual membrane potential were less then 2 mV. Cell capacitance (10-75 pF) compensation was used to compensate for capacitive currents. The extracellular solution contained (in mM): NaCl 140; KCl 5; CaCl2 2; MgCl2 1; D(+) glucose 5.6;HEPES 5; Sucrose 30; pH=7.4. The pipette solution contained (in mM): K-gluconate 119; NaCl 5; KCl 13; CsCl 2; CaCl2 1; EGTA 10;HEPES 10; pH=7.2. Cells were preincubated for more then 1½ hours with different concentrations (1E-9 to 1E-4 M) of test compound dissolved in extracellular solution at room temperature (20° C.) in normal air. Larger cells that appeared round with a pronounced halo under phase-contrast microscopy were selected because almost all of them expressed Ih. Data were acquired with a Digidata 1200® analogue to digital interface using PCLAMP® software (both from Axon Instruments). For Ih activation the cell was held at −63 mV and stepped to −123mV (potentials after correction for liquid junction potential). Current traces were selected for soundness, averaged and fitted to a first order exponential using PCLAMP® software (fit between 60 and 950 ms to avoid biasing by transient currents). Activation time constants (τ) for Ih under different drug concentrations were derived from this fit. The activation rate constant for Ih is defined as kact=1/τ.
The pIC50 is the (-) log concentration of a compound at which the Ih activation rate constant kact is reduced by 50%. pIC50 for a compound could be estimated adequately by fitting kact to the logarithm of the concentration with a logistic function using PRISM® software (Graphpad Inc.). The function chosen is:
kact=A/(1+10^ (log([compound])+pIC50)); A is kact [compound]=0M.
Averaging all control measurements yields that A=3.52 s^−1 and the maximum kact was forced to this value for all compounds in this study. The Hill slope that normally is estimated in concentration-effect relations appeared to be about 1 and was subsequently fixed to this value. […]

[3] = test system: REM sleep in male Wistar rats; assay: Rat Sleep Analysis: suppression of REM sleep; assay type: in vivo; settings: first 3 hours after drug administration
Method: Suppression of REM sleep in male Wistar rats was measured after treatment with compounds according to the invention or reference antidepressants using the methods described by Ruigt et al.(Electroencephalography and clinic Neurophysiology, 1989, 73, pages 52-63 & 64-71)
The values reported in Table 1 are expressed as percentage change over placebo for the amount of REM sleep in the first 3 hours after drug administration.

[4] = effective dose causing 50% inhibition of burying compared to control mice, read-out: BUR ED50 (SC)
[5] = Table 2, read-out: BUR sc ED50(mg/kg)

| SMILES | ED50 [1, 4] [mg/kg] | melting point | pIC50-Ih [2] | other results |
| --- | --- | --- | --- | --- |
| C=CC[C@H](N)c1ccccc1-c1noc2cc(F)ccc12.O=C(O)/C=C/C(=O)O [13(1), (S)-(−)-2-(6-fluoro-1,2-benzisoxazol-3-yl)-α-2-propenyl-benzenemethanamine (E)-butenedioate] | 1 | 146 to 149 °C | 6.13 | – |
| CCCCC(N)c1ccccc1-c1noc2ccccc12.Cl (stereo not drawn) [Example 15, 2-(1,2-Benzisoxazol-3-yl)-α-butyl-benzenemethanamine Hydrochloride] | – | – | 5.98 | – |
| COCCCC/C(=N\OCCN)c1ccc(C(F)(F)F)cc1 [Fl, Fluvoxamine] | – | – | – | percentage change over placebo for the amount of REM sleep ([3]; dose 4.6 mg/kg IP): 40%; percentage change over placebo for the amount of REM sleep ([3]; dose 22 mg/kg IP): −100% |
| COc1ccc(C(CN(C)C)C2(O)CCCCC2)cc1 (stereo not shown) [Ve, Venlafaxine] | – | – | – | percentage change over placebo for the amount of REM sleep ([3]; dose 3.2 mg/kg IP): −77% |
| C=CC[C@@H](N)c1ccccc1-c1noc2ccccc12.Cl [Example 12, (R)-2-(1,2-Benzisoxazol-3-yl)-α-2-propenyl-benzenemethanamine Hydrochloride] | – | 191 °C | 5.12 | – |
| C=CC[C@H](N)c1ccccc1-c1noc2cc(Cl)ccc12.Cl [Example 19(2), (S)-(−)-2-(6-chloro-1,2-benzisoxazol-3-yl)-α-2-propenyl-benzenemethanamine hydrochloride] | – | 169 to 178 °C | 6.79 | – |
| CN(C)CCC=C1c2ccccc2CCc2ccccc21 [Am, Amitriptyline] | – | – | – | percentage change over placebo for the amount of REM sleep ([3]; dose 4.6 mg/kg IP): −22%; percentage change over placebo for the amount of REM sleep ([3]; dose 10 mg/kg IP): −100% |
| CC(O)c1ccccc1-c1noc2ccccc12 (stereo not drawn) [Example 27, 2-(1,2-Benzisoxazol-3-yl)-α-methyl-benzenemethanol] | – | – | 5.50 | – |
| C=CCC(N)c1ccccc1-c1ccccc1.Cl (stereo not drawn) [15 (4), 2-phenyl-α-2-propenyl-benzenemethanamine hydrochloride] | – | 214 to 218 °C | – | ED50 [1, 5]: 8.6 mg/kg |
| C=CCC(N)c1ccccc1-c1noc2cc(Cl)ccc12.Cl (stereo not drawn) [11(2), 2-(6-chloro-1,2-benzisoxazol-3-yl)-α-2-propenyl-benzenemethanamine hydrochloride] | 0.7 | 174 to 185 °C | 6.44 | – |
| C=CCC(N)c1ccccc1-c1ccc(Cl)s1.O=C(O)/C=C/C(=O)O (stereo not drawn) [15 (14), 2-(5-chlorothien-2-yl)-α-2-propenyl-benzenemethanamine (E)-butenedioate] | – | 192 to 199 °C | – | ED50 [1, 5]: 19 mg/kg |
| C=CCC(N)c1ccccc1-c1noc2ccc(F)cc12.Cl (stereo not drawn) [11(3), 2-(5-fluoro-1,2-benzisoxazol-3-yl)-α-2-propenyl-benzenemethanamine hydrochloride] | 2.68 | 209 to 214 °C | – | – |
| Cl.NC(Cc1ccccc1)c1ccccc1-c1noc2ccccc12 (stereo not drawn) [36(1), 2-(1,2-benzisoxazol-3-yl)-α-benzyl-benzenemethanamine hydrochloride] | 2.5 | 210 to 246 °C (dec.) | – | – |
| O=C(O)C(=O)O.c1ccc(CNCc2ccccc2-c2noc3ccccc23)cc1 [Example 21(3), 2-(1,2-benzisoxazol-3-yl)-N-benzyl-benzenemethanamine ethanedioate] | – | 165 °C | 5.06 | – |
| C=CC[C@H](N)c1cc(F)ccc1-c1noc2ccccc12.O=C(O)/C=C/C(=O)O [Example 13(3), (S)-(−)-2-(1,2-benzisoxazol-3-yl)-5-fluoro-α-2-propenyl-benzenemethanamine (E)-butenedioate] | – | 174 to 176 °C | 5.98 | – |
| C=CCC(N)c1ccccc1-c1cncc2ccccc12.O=C(O)/C=C/C(=O)O (stereo not drawn) [16 (2), 2-(isoquinolin-4-yl)-α-2-propenyl-benzenemethanamine (E)-butenedioate] | – | 246 to 248 °C | – | ED50 [1, 5]: 9.9 mg/kg |
| C=CCC(N)c1ccccc1-c1noc2ccncc12.O=C(O)/C=C\C(=O)O (stereo not drawn) [16 (7), 2-(isoxazolo[4,5-c]pyridin-3-yl)-α-2-propenyl-benzenemethanamine (Z)-butenedioate] | – | 151 to 153 °C | – | ED50 [1, 5]: 7.6 mg/kg |
| C=CCC(N)c1ccccc1-c1noc2ccccc12.Cl (stereo not drawn) [Example 11, 2-(1,2-Benzisoxazol-3-yl)-α-2-propenyl-benzenemethanamine Hydrochloride] | 1.04 | 191 °C | – | percentage change over placebo for the amount of REM sleep ([3]; dose 0.32 mg/kg IP): −44%; percentage change over placebo for the amount of REM sleep ([3]; dose 1 mg/kg IP): −88% |
| C=CCC(N)c1ccccc1-c1noc2c1CCCC2.O=C(O)/C=C\C(=O)O (stereo not drawn) [15 (25), 2-(4,5,6,7-tetrahydro-1,2-benzisoxazol-3-yl)-α-2-propenyl-benzenemethanamine (Z)-butenedioate] | – | 144 to 145 °C | – | ED50 [1, 5]: 3.2 mg/kg |
| Cl.NC(Cc1ccsc1)c1ccccc1-c1noc2ccccc12 (stereo not drawn) [36(2), 2-(1,2-benzisoxazol-3-yl)-α-[(thien-3-yl)-methyl)-benzenemethanamine hydrochloride] | 1.2 | 264 to 267 °C | – | – |
| CC(N)c1ccccc1-c1noc2ccccc12.Cl (stereo not drawn) [Example 39, 2-(1,2-Benzisoxazol-3-yl)-α-methyl-benzenemethanamine Hydrochloride] | – | 229 to 236 °C | 5.24 | – |
| O=C(NCCN1CCOCC1)c1ccc(Cl)cc1 [Mo, Moclobemide] | – | – | – | percentage change over placebo for the amount of REM sleep ([3]; dose 10 mg/kg IP): −61%; percentage change over placebo for the amount of REM sleep ([3]; dose 32 mg/kg IP): −100% |
| C=CC[C@@H](N)c1ccccc1-c1noc2cc(Cl)ccc12.Cl [12(2), (R)-(+)-2-(6-chloro-1,2-benzisoxazol-3-yl)-α-2-propenyl-benzenemethanamine hydrochloride] | 3.4 | 144 to 159 °C | – | – |
| C=CC[C@H](N)c1ccccc1-c1noc2ccccc12.Cl [Example 13, (S)-2-(1,2-Benzisoxazol-3-yl)-α-2-propenyl-benzenemethanamine Hydrochloride] | 0.39 | 191 °C | 6.48 | percentage change over placebo for the amount of REM sleep ([3]; dose 0.1 mg/kg IP): −17%; percentage change over placebo for the amount of REM sleep ([3]; dose 0.32 mg/kg IP): −26%; percentage change over placebo for the amount of REM sleep ([3]; dose 1 mg/kg IP): −100% |
| C=CCC(N)c1ccccc1-c1cccc(C(F)(F)F)c1.O=C(O)/C=C/C(=O)O (stereo not drawn) [15 (34), 2-(3-trifluoromethylphenyl)-α-2-propenyl-benzenemethanamine (E)-butenedioate] | – | 194 to 196 °C | – | ED50 [1, 5]: 6.9 mg/kg |
